One data set has as its target Serotonin 5-HT2A (human) (Homo sapiens (Human), UniProt P28223). As to the kind of experiment: 5-HT2A receptor binding, [3H]-ketanserin competition in membrane fractions. The note with it: 1 nM [3H]-ketanserin, Cheng-Prusoff, N=1-3.
The target of a further data set is 5-HT2A (Homo sapiens (Human), UniProt P28223). As to the kind of experiment: 5-HT2A Gq-mediated calcium flux functional assay. Type of data set: cell-based. The note with it: for 5-HT2A-Ca2+ FLUX Emax (% 5-HT): IA = Inactive, N=1-3.
Another data set concerns the target 5-HT2B (Homo sapiens (Human), UniProt P41595). The experiment in a line: 5-HT2B Gq-mediated calcium flux functional assay. Type of data set: cell-based. The note with it: for 5-HT2B-Ca2+ FLUX Emax (% 5-HT): IA = Inactive, N=1-3.
A further data set deals with 5-HT2C (Homo sapiens (Human), UniProt P28335). The experiment in a line: 5-HT2C Gq-mediated calcium flux functional assay. Type of data set: cell-based. The note with it: for 5-HT2C-Ca2+ FLUX Emax (% 5-HT): IA = Inactive, N=1-3. (Calcium flux is commonly read through the fluorescence of an indicator in the cells.)
5-HT2C, sequence (P28335 whole entry, looked up): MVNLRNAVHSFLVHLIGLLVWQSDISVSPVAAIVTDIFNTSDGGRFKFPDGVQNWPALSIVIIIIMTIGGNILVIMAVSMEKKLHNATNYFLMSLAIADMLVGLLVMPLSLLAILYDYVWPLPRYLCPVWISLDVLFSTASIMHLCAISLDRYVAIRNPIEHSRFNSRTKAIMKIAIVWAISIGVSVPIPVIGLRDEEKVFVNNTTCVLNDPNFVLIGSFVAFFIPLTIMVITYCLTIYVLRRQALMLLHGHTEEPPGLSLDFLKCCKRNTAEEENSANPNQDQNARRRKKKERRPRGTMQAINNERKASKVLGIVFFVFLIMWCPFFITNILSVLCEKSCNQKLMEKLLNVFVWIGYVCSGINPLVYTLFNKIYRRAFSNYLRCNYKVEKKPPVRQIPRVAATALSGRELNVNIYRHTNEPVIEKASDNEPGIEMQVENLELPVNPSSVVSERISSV
In another data set the target is 5-HT1A (Homo sapiens (Human), UniProt P08908). As to the kind of experiment: 5-HT1A Gi/o-mediated cAMP inhibition, GloSensor assay. Format: cell-based. The note with it: for 5-HT1A-cAMP Emax (% 5-HT): cAMP inhibition, 0.2 μM isoproterenol, IA = Inactive.
In the next data set the test system is C57BL/6J mice. The experiment in a line: Head-Twitch Response (HTR) in mice. The note with it: for ED50: Mus musculus, ip, 0.5 h; for HTR counts over baseline / induction of HTR: compared to vehicle. Type of data set: in vivo. As to the method:
Male C57BL/6J mice (6-8 weeks old) were obtained from Jackson Laboratories (Bar Harbor, ME) and housed in a vivarium at the University of California San Diego, an AAALAC-approved animal facility that meets all federal and state requirements for care and treatment of laboratory animals. All animal experiments were carried out in accordance with NIH guidelines and were approved by the UCSD Institutional Animal Care and Use Committee. Mice were housed up to four per cage in a climate-controlled room on a reverse-light cycle (lights on at 1900 h, off at 0700 h). Animals were provided with ad libitum access to food and water, with the exception of during behavioral testing.
Testing was conducted between 1000 and 1800 h. Head movements were recorded using a head-mounted magnet and a magnetometer coil as described in Halberstadt et al. (Psychopharmacology, 2013, 227(4):727-739). For the head mounted magnet, mice were anesthetized, an incision was made in the scalp, and a neodymium magnet was attached to the dorsal surface of the cranium using dental cement. Following a 2-week recovery period, behavioral experiments were conducted in a well-lit room. At least 7 days occurred between sessions to avoid any carryover effects. Test substances (i.e., dimethyltryptamine (DMT), diethyltryptamine (DET), psilocybin, 6-fluoro-diethyltryptamine (6-F-DET), compounds 3-4, 6, 9, 12-13, 22, 33, 41, 69, 88, 166, and 178) were administered intraperitoneally (IP) at a volume of 5 mL/kg. Mice were treated with vehicle (saline) or 6 doses of the test compound and then placed in a glass cylinder surrounded by a magnetometer coil and tested for 30 min. Coil voltage was filtered (1 kHz lowpass), digitized (20 kHz sampling rate) and saved to disk using a Powerlab/8SP with LabChart v 7.3.2 (ADInstruments, Colorado Springs, CO).
The entire 30 min recordings were examined for head twitches. Established procedures based on artificial intelligence were used to identify head twitches in the recordings (Scientific Reports, 2020, 10(1):1-12). HTR counts were analyzed using one-way analyses of variance (ANOVA), followed by post hoc pairwise comparisons between individual groups and vehicle using Dunnett's multiple comparisons test. […] Median effective doses (ED50 values) and 95% confidence intervals (95% CI) were calculated using nonlinear regression (Prism 9.0.2, GraphPad Software, San Diego, CA) (Table 4 and FIGS. 1-3).

Data set [1] in a line: Metabolic stability in cryopreserved human hepatocytes. The note with it: cryopreserved hepatocytes, human hepatocytes, 1 μM, 37° C. Format: in vitro ADME. As to the method:
(§1) The metabolic stability of a test compounds were assessed by monitoring disappearance of each compound in the presence of cryopreserved hepatocytes for up to 1 hour at 37° C. Following protein precipitation and centrifugation, the samples were analyzed by UPLC-MS-MS. Test Compound stock solutions (10 mM) were diluted 1 in 100 (2 μL 10 mM DMSO stock+198 μL 50:50 acetonitrile:water) to provide a 100 μM working solution. Following addition of test compounds to buffer, samples were pre-incubated at 37° C. for 5 minutes prior to initiating the incubation by the addition of test compounds to hepatocytes (these were held at 37° C. during pre-incubation period). Aliquots were sampled at 0, 5, 10, 20, 40 and 60 min and added to ice cold acetonitrile to terminate the reaction and precipitate proteins. All samples were mixed, centrifuged, and the supernatants were analyzed by UPLC-MS-MS using a Phenomenex Luna Omega […], C18 100 Å, 50×2.1 mm column. The final incubation conditions were as follows: hepatocytes 0.5×10^6 viable cells/mL, test compound 1 μM (n=1), acetonitrile concentration<0.01% (v/v) and DMSO concentration<0.01% (v/v). The intrinsic clearance (Clint) and half-life (T1/2) values are determined from the slope of the parent depletion curve. Positive control compounds with known metabolic clearance were included (diltiazem and naloxone).

The next data set relates to human hepatocytes. Described as above. Format: in vitro ADME. The protocol:
as §1

Setting [2] is: read-out: HTR ED50 μmol/kg (95% CI).
Setting [3] is: read-out: HTR ED50 mg/kg (95% CI).
[4] abbreviates: human hepatocytes, 1 μM, 37° C.

Where two headings read alike, the source gives them in different places.

For orientation: EC50 means the concentration giving half of the maximal effect. As usually defined, the melting point is the temperature of the solid-liquid transition. A word on the half-life: it is the time in which the quantity being followed falls by half.

5-HT2B, sequence (P41595 whole entry): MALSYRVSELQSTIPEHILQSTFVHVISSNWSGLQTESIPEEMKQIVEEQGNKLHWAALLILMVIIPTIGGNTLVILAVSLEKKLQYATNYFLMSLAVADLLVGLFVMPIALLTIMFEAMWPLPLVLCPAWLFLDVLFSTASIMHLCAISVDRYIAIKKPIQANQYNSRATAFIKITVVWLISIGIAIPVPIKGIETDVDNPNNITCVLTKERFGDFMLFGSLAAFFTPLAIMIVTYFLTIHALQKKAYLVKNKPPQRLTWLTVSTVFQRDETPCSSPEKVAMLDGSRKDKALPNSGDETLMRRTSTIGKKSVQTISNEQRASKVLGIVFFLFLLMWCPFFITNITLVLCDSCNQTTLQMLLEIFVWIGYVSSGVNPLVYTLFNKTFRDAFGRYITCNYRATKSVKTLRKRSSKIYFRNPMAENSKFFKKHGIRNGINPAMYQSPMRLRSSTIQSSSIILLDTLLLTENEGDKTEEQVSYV

As for `CCCN(C)CCc1c[nH]c2ccc(F)cc12` [Example 13, N-(2-(5-fluoro-1H-indol-3-yl)ethyl)-N-methylpropan-1-amine], the melting point was 80 to 82 °C. The “5-HT2A pKi ± SEM” value on Serotonin 5-HT2A (human) worked out at 6.72 ± 0.12. Further, on 5-HT2A, the EC50 was 1.58 nM and the “5-HT2A-Ca2+ FLUX Emax (% 5-HT)” value turned out to be 103.0 ± 1.1 % 5-HT. Moreover, on 5-HT2B, the half-maximal effective concentration (EC50) is 2.63 nM and the “5-HT2B-Ca2+ FLUX Emax (% 5-HT)” value amounted to 77.0 ± 1.2 % 5-HT. In addition, on 5-HT2C, the half-maximal effective concentration (EC50) was 1.51 nM and the “5-HT2C-Ca2+ FLUX Emax (% 5-HT)” value turned out to be 115.0 ± 4.0 % 5-HT. At 5-HT1A, the concentration giving a half-maximal response (EC50) is 245 nM and the “5-HT1A-cAMP Emax (% 5-HT)” value amounted to 85.8 ± 2.5 % 5-HT. In the data set with C57BL/6J mice (setting [2]), the ED50 came to 4.81 µmol/kg. Further, the ED50 in the data set with C57BL/6J mice (setting [3]) came to 1.13 mg/kg.

With `CCCN(CCc1c[nH]c2ccc(F)cc12)C(C)C` [Example 4, N-(2-(5-fluoro-1H-indol-3-yl)ethyl)-N-isopropylpropan-1-amine], the “5-HT2A pKi ± SEM” value at Serotonin 5-HT2A (human) came out at 6.02 ± 0.07. For the same compound, the 50% effective concentration (EC50) on 5-HT2A was 0.468 nM; on 5-HT2B, 0.759 nM; at 5-HT2C, 9.12 nM; on 5-HT1A, 331 nM. For the same compound, on 5-HT2A, the “5-HT2A-Ca2+ FLUX Emax (% 5-HT)” value was 99.5 ± 1.1 % 5-HT. Also, at 5-HT2B, the “5-HT2B-Ca2+ FLUX Emax (% 5-HT)” value was 105.60 ± 0.7 % 5-HT. In addition, the “5-HT2C-Ca2+ FLUX Emax (% 5-HT)” value at 5-HT2C worked out at 74.6 ± 2.0 % 5-HT. Further, the “5-HT1A-cAMP Emax (% 5-HT)” value on 5-HT1A amounted to 80.5 ± 2.5 % 5-HT. Moreover, the ED50 with C57BL/6J mice (setting [2]) came out at 2.18 µmol/kg; in the data set with C57BL/6J mice (setting [3]), 0.65 mg/kg. Besides, the “HTR counts over baseline / induction of HTR” value in the data set with C57BL/6J mice is reported as “significant increase”. In data set [1], this compound displayed a half-life at 1 μM of 13 min. In addition, the hepatocyte CLint at 1 μM in data set [1] (read-out: Clint (μL/min/10^6 cells)) was 109 µL/min/1e6 cells. Besides, the “metabolism by human hepatocytes” value in the data set with human hepatocytes (qualitative statement) is listed as “rapidly metabolized”.

In the case of `COc1ccc([C@@H]2Sc3ccccc3N(CCN(C)C)C(=O)[C@@H]2OC(C)=O)cc1` [diltiazem, reference compound], in the data set with human hepatocytes (setting [4]), the “Clint (μL/min/10^6 cells)” value is reported as 32 μL/min/10^6 cells and the “T1/2” value is on record as 44 min.

Regarding `CCCN(CC)CCc1c[nH]c2cc(F)c(F)cc12` [Example 9, N-(2-(5,6-difluoro-1H-indol-3-yl)ethyl)-N-ethylpropan-1-amine], the melting point lay within 83 to 86 °C. For the same compound, the “5-HT2A pKi ± SEM” value on Serotonin 5-HT2A (human) is on record as 6.15 ± 0.21. For the same compound, on 5-HT2A, the concentration for a half-maximal effect (EC50) is 1.02 nM and the “5-HT2A-Ca2+ FLUX Emax (% 5-HT)” value is 105.7 ± 1.9 % 5-HT. Besides, at 5-HT2B, the EC50 is 1.7 nM and the “5-HT2B-Ca2+ FLUX Emax (% 5-HT)” value turned out to be 96.6 ± 2.0 % 5-HT. At 5-HT2C, the EC50 is 19.1 nM and the “5-HT2C-Ca2+ FLUX Emax (% 5-HT)” value was determined as 100.7 ± 3.0 % 5-HT. Moreover, at 5-HT1A, the 50% effective concentration (EC50) is 229 nM and the “5-HT1A-cAMP Emax (% 5-HT)” value was 89.1 ± 2.9 % 5-HT. For the same compound, the ED50 in the data set on C57BL/6J mice (setting [2]) was 3 µmol/kg. The ED50 with C57BL/6J mice (setting [3]) amounted to 0.91 mg/kg. Further, the “HTR counts over baseline / induction of HTR” value with C57BL/6J mice was “significant increase”.

Values taken from US20240286998A1, “F[…], ANALOGUES THEREOF, AND METHODS USING SAME” (Saint Joseph's University, priority 2021, published 2024).
